Assay results reported in US6300470A, “Antibiotic cryptdin peptides and methods of their use” (priority 1999, dated 2001).

Columns and labels:
Format in all cases: cell-based
E. coli ML35 = test: radial diffusion assay, E. coli ML35; conditions: 10 mM PIPES
Method: Purified cryptdin peptides were dissolved at 3 to 300 μg/ml in 0.010% acetic acid and activity was examined against E. coli ML35 (ATCC). In the radial diffusion assay, […] peptide solution was transferred into wells formed in plates of 1% agarose buffered with 10 mM PIPES (pH 7.4) and containing 1×10^6 log-phase bacteria grown in trypticase soy broth. After 3 hr at 37° C., the plates were overlayed with 0.8w agarose containing 2× trypticase soy broth and incubated overnight. The antibacterial activities of cryptdin peptides was compared with the activity of rabbit neutrophil defensin NP-1, which was purified from peritoneal exudates as described by Selsted et al. (J. Biol. Chem. 260:4579-4584 (1985), which is incorporated herein by reference). Antibacterial activity was determined by measuring the diameter of learing around each well and plotted as a function of peptide concentration.

[1] = test system: wild type S. typhimurium (ATCC 10428); test: agar radial diffusion assay, wild type S. typhimurium; conditions: HEPES or PIPES buffer; 100 μg/ml or 300 μg/ml
Method: (§1) FIGS. 7.A. and 7.B. depict the antimicrobial activity of mouse cryptain 1 (SEQ ID NO: 6). Samples of purified natural mouse cryptdin 1 (FIG. 7.A.) or rabbit NP-1 (FIG. 7.B.) were dissolved in 0.01% acetic acid and pipetted into wells produced in a 0.6, agarose/0.3% tryptone plate containing 1×10^6 log phase bacterial cells. After incubation at 37° C. for 18 hr, antimicrobial activity was evaluated by measuring the diameters of the clear zones. Closed circles denote wild type S. typhimurium; open circles denote the phoP^- mutant. […]
(§2) Antibacterial activity was measured in an agar radial diffusion assay (Lehrer et al., supra, 1991b) using wild type S. typhimurium (ATCC 10428) or an isogenic phoP mutant of S. typhimurium (strain CS015 phoP102::Tn10d-Cam, Miller et al., supra, 1989). […]
(§3) Purified cryptdin peptides were dissolved at 3 to 300 μg/ml in 0.010% acetic acid and activity was examined against E. coli ML35 (ATCC). […] Antibacterial activity was determined by measuring the diameter of learing around each well and plotted as a function of peptide concentration.

[2] = test system: isogenic phoP mutant of S. typhimurium (strain CS015 phoP102::Tn10d-Cam); test: agar radial diffusion assay, phoP mutant S. typhimurium; conditions: HEPES or PIPES buffer; 100 μg/ml or 300 μg/ml
Method: as §1, §2, §3

S. aureus = test: radial diffusion assay, S. aureus growth inhibition; conditions: higher concentrations (100 μg/ml and 300 μg/ml)
[3] = test system: wild type S. typhimuruim cells; test: bactericidal assay, wild type S. typhimurium; conditions: 10 μg/ml
Method: (§4) In order to determine whether the effect of the cryptdin peptides against E. coli is bacteriostatic or bacteriocidal, bacterial killing was quantitated as a function of time. Bactericidal asgayg were performed by incubating 1-2×10^6 log-phase bacteria in 10 mM PIPES containing 10 μg peptide/ml. After incubation for 15 or 30 min at 37° C., aliquots were removed, serially diluted and plated on trypticase soy agar. Bactericidal activity was quantitated by counting colonies after overnight incubation at 37° C.
(§5) The bactericidal activity of rat cryptdin 1 also was examined. E. coli ML35 cells, S. areus 502A cells or mutant or wild type S. typhimuruim cells were incubated with various concentrations of rat cryptdin 1 or rabbit NP-1.

S. areus 502A cells = test: bactericidal assay, S. aureus 502A; conditions: 10 μg/ml
Method: as §4, §5

[4] = test system: mutant S. typhimuruim cells; test: bactericidal assay, mutant S. typhimurium
Method: as §4, §5

E. coli ML35 cells = test: bactericidal assay in suspension, E. coli
Method: as §4, §5

Sequence | activity against E. coli ML35 relative to rabbit NP-1 (E. coli ML35; at concentration above 100 μg/ml) | inhibiting growth of wild type S. typhimurium compared with NP-1 [1] | preventing growth of mutant S. typhimurium compared with NP-1 [2] | inhibiting growth of S. aureus compared with same concentration of NP-1 (S. aureus) | killing of wild type S. typhimurium [3] | S. aureus cells killed (S. areus 502A cells) | mutant S. typhimurium cells killed ([4]; 10 μg/ml) | killing of mutant S. typhimurium cells, rat cryptdin 1 compared with NP-1 ([4]; various concentrations) | E. coli cells killed (E. coli ML35 cells; 10 μg/ml) | killing of E. coli cells, rat cryptdin 1 compared with NP-1 (E. coli ML35 cells; various concentrations) | activity against E. coli ML35 relative to NP-1 (E. coli ML35; compared at 100 μg/ml and 300 μg/ml)
LSKKLICYCRIRGCKRRERVFGTCRNLFLTFVFCC [cryptdin 5] | approximately 5 × | more effective than the same concentration of NP-1 | more effective than the same concentration of NP-1 | more effective than the same concentration of NP-1 |  |  |  |  |  |  | 
LKQCHCRKFCRPYEKAEGSCRPGLFIKRKICCIQQWTPG [rat cryptdin 1] |  |  |  |  | relatively ineffective | about 90% | greater than 99% | more effective than NP-1 | greater than 99% | more effective than NP-1 | 
GLLCYCRKGHCKRGERVRGTCGIRFLYCCPR [cryptdin 4] |  | more effective than the same concentration of NP-1 | more effective than the same concentration of NP-1 | more effective than the same concentration of NP-1 |  |  |  |  |  |  | at least 50 ×
